Inconclusive results are not listed. Some results are limits rather than exact numbers.

The assay has as its system IOSE-T80 viability, CellTiterGlo ATP luminescence, 96 h. The experiment in a line: cytotoxicity in IOSE-T80 ovarian epithelial cells, dose response, selectivity assay for PAX8 inhibitor project, cell-based, cherry-pick (AID 687032).
Turning to `C[C@@H]1CN([C@H](C)CO)C(=O)c2cc(NC(=O)Nc3ccc(F)cc3)ccc2O[C@@H](C)CCCCO[C@@H]1CN(C)Cc1ccc2c(c1)OCO2`, the AC50 is under 260 nM. As to `Cc1ccc2c(c1)c1c3n2CCN(CC(N)=O)C3CCC1` (centres undefined), the concentration at half-maximal activity (AC50) was 10200 nM. For the compound `COc1ccc(CCNc2nnc(Sc3nnnn3-c3ccccc3)s2)cc1OC`, the AC50 is 8840 nM. As for `C[C@@H]1CCCCO[C@@H](CN(C)S(=O)(=O)c2ccc(Cl)cc2)[C@H](C)CN([C@H](C)CO)C(=O)c2cc(NS(=O)(=O)c3ccc(F)cc3)ccc2O1`, the concentration at half-maximal activity (AC50) is under 260 nM.

Turning to `C[C@H]1CCCCO[C@H](CN(C)Cc2ccc(C(F)(F)F)cc2)[C@@H](C)CN([C@@H](C)CO)C(=O)c2cc(NC(=O)c3ccccc3)ccc2O1`, the AC50 was 32100 nM. As to `O=[N+]([O-])c1cccnc1S(=O)(=O)c1ccccc1`, the AC50 is under 260 nM.

With `Cc1ccc(NC(=O)CN(C)C(=O)Cn2ncc(Cl)c(Cl)c2=O)cc1`, the AC50 was under 260 nM. Consider `O=c1cc(-c2ccccc2)oc2ccc3ccccc3c12`, for which the AC50 is under 260 nM. Consider `COc1ccccc1C#Cc1ccc2c(c1)O[C@H](CN(C)Cc1cccnc1)[C@H](C)CN([C@@H](C)CO)S2(=O)=O`, for which the AC50 is 3050 nM. `CCCNC(=O)Nc1ccc2c(c1)OC[C@H](C)N(Cc1ccc(-c3ccccn3)cc1)C[C@@H](C)[C@@H](OC)CN(C)C2=O`: the AC50 was under 260 nM. For the compound `COc1ccccc1C(=O)Nc1nc2ccccc2[nH]1`, the AC50 is 9810 nM. On to `O=S(=O)(c1ccccc1F)N1CC[C@@H]2[C@@H](CO)Nc3ccc(C4=CCCCC4)cc3[C@@H]21`, for which the concentration at half-maximal activity (AC50) is under 260 nM. Take `FC(F)(F)c1nnc2c(Sc3ccccn3)nc3ccccc3n12`: the AC50 was 8850 nM.

Turning to `C[C@@H]1CN([C@H](C)CO)C(=O)Cc2cc(NC(=O)Nc3ccc(F)cc3)ccc2O[C@H]1CN(C)Cc1ccc(Cl)c(Cl)c1`, the AC50 is under 260 nM. For the compound `C[C@@H]1CCCCO[C@@H](CN(C)Cc2ccc(C(F)(F)F)cc2)[C@@H](C)CN([C@@H](C)CO)C(=O)c2cc(NS(=O)(=O)c3ccc(F)cc3)ccc2O1`, the AC50 is under 235 nM. As to `C[C@@H]1CCCCO[C@H](CN(C)Cc2ccc(C(F)(F)F)cc2)[C@H](C)CN([C@H](C)CO)C(=O)c2cc(NS(=O)(=O)c3cccs3)ccc2O1`, the concentration at half-maximal activity (AC50) was under 260 nM. On to `CCC(c1nnnn1Cc1ccccc1)N1CCC(n2c(=O)[nH]c3ccccc32)CC1` (centres undefined), for which the AC50 is under 260 nM. As to `O=S(=O)(NCC1CCCO1)c1cnc(Cl)c(Br)c1` (centres undefined), the half-maximal activity concentration (AC50) was under 260 nM. `S=c1sc2c(Cl)ncnc2n1-c1ccccc1`: the AC50 is under 260 nM. As to `Cc1noc(C)c1S(=O)(=O)Nc1ccc2c(c1)C(=O)N([C@H](C)CO)C[C@H](C)[C@@H](CN(C)C(=O)Nc1ccc(C(F)(F)F)cc1)OCCCC[C@H](C)O2`, the AC50 is 23300 nM. With `O=C(NCc1ccco1)C1CCCN(S(=O)(=O)c2ccc(Br)cc2)C1` (centres undefined), the AC50 is under 260 nM. Regarding `N#Cc1ccc(-c2ccc(C3[C@@H]4CN(C(=O)C5CC5)C[C@H]3N4)cc2)cc1` (some centres undefined), the AC50 was under 260 nM. For the compound `C[C@@H]1CCCCO[C@@H](CN(C)C(=O)Nc2cccc3ccccc23)[C@H](C)CN([C@H](C)CO)C(=O)c2cc(NS(=O)(=O)c3ccc(F)cc3)ccc2O1`, the AC50 is under 260 nM. In the case of `C[C@H](CO)N1C[C@H](C)[C@@H](CN(C)C(=O)Nc2ccnc(N3CCOCC3)c2)OCc2cnnn2CCCC1=O`, the AC50 was under 260 nM. On to `C[C@@H]1CN([C@@H](C)CO)C(=O)Cc2cc(NS(=O)(=O)c3ccc(Cl)cc3)ccc2O[C@H]1CN(C)Cc1ccc(Oc2ccccc2)cc1`, for which the AC50 was under 260 nM.

Regarding `C=C(C)c1nc(Oc2ccccc2)nc(Oc2ccccc2)n1`, the AC50 was under 260 nM. For the compound `C[C@]12CCC3C(CCC4=CC(O)CC[C@@]43/C=N/O)C1(O)CCC2C1=CC(=O)OC1` (some centres undefined), the AC50 was under 260 nM. For `Cc1ccsc1/C=N/Nc1cccc(C(=O)O)c1` the value was 17300 nM. On to `O=C(NC1CCCCC1)C(c1cccnc1)N(C(=O)CCl)c1ccc(F)cc1` (centres undefined), for which the AC50 was 10200 nM. For `COc1cc(/C=N/O)ccc1OCc1ccc(C(=O)O)cc1` the value was 9950 nM; for `C[C@@H]1CCCCO[C@@H](CN(C)Cc2ccc(C(F)(F)F)cc2)[C@@H](C)CN([C@@H](C)CO)C(=O)c2cc(NS(=O)(=O)c3ccccc3)ccc2O1`, under 260 nM; for `O=C1c2cccc3cc([N+](=O)[O-])cc(c23)C(=O)N1CCN1CCCC1`, under 260 nM. For `COc1cc(-c2cnc3c(NC=O)cc(-c4ccccc4)cn23)cc(OC)c1OC` the value was under 260 nM; for `CCCC(=O)NC(c1ccc(C(C)C)cc1)c1ccc2cccnc2c1O` (centres undefined), under 260 nM; for `Cc1ccc(S(=O)(=O)N(C)C[C@@H]2Oc3cc(C#Cc4ccncc4)ccc3S(=O)(=O)N([C@H](C)CO)C[C@@H]2C)cc1`, 24200 nM.

Consider `C[C@@H]1CCCCO[C@H](CN(C)C(=O)Cc2ccccc2)[C@@H](C)CN([C@@H](C)CO)C(=O)c2cc(NC(=O)Nc3ccc(C(F)(F)F)cc3)ccc2O1`, for which the AC50 is under 260 nM. For `Cc1ccc(S(=O)(=O)Nc2cccc3c2O[C@@H](CN(C)Cc2ccc(Oc4ccccc4)cc2)[C@@H](C)CN([C@H](C)CO)C3=O)cc1`, the AC50 was under 260 nM.

`Cc1ccc(NC(=O)Cn2ncc(Cl)c(Cl)c2=O)cc1S(=O)(=O)N1CCCCC1`: the AC50 was under 260 nM. As for `Cc1ccc(S(=O)(=O)Nc2ccc3c(c2)CC(=O)N([C@H](C)CO)C[C@H](C)[C@H](CN(C)S(=O)(=O)c2ccc(F)cc2)O3)cc1`, the AC50 was under 260 nM.

Values taken from PubChem BioAssay AID687032 (Broad Institute, 2013).
